Source: PubChem BioAssay AID602427 (Sanford-Burnham Center for Chemical Genomics, 2012)
Activity calls are given as the source filed them.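 How the source made its calls: active means EC50 at or below 20 micromolar; inactive means the rest.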

target: Neurotensin receptor type 1 (Homo sapiens) (UniProt P30989); experiment: NTSR1 activation via enzyme-fragment complementation – cell-based, luminescence, CHO-K1 NTSR1 PathHunter, orthogonal assay for NTR1 agonist project, SAR follow-up (AID 602427); details: CHO-K1 NTSR1 PathHunter beta-arrestin;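 further: agonist potency for NTR1 activation where higher luminescence means more arrestin recruitment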
Sequence (P30989 whole entry, looked up, the tested form may be a part): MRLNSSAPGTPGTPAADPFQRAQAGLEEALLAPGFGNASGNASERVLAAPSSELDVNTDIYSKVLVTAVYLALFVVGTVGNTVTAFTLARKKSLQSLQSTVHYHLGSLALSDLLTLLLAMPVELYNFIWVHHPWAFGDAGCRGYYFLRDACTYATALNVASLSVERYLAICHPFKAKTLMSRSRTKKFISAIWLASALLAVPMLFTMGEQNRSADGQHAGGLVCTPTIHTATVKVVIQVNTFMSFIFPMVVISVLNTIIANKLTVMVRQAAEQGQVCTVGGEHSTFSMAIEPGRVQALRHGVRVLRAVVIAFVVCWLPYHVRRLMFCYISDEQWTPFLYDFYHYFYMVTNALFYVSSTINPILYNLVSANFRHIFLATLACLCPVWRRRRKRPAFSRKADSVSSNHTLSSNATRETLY

**Q.** COc1cccc(OC)c1-c1cc(C(=O)O)nn1-c1ccnc2cc(Cl)ccc12 was tested. Which EC50 did it give?
**A.** > 33 µM (inactive)

**Q.** How did the EC50 turn out when COc1ccc(-c2nnc3c4cc(OC)c(OC)cc4n(Cc4ccccc4)cc2-3)cc1 was run?
**A.** > 33 µM (inactive)

**Q.** Which EC50 does the source give for COc1cc2c3nnc(-c4ccc(F)cc4)c-3cn(Cc3ccncc3)c2cc1OC here?
**A.** > 33 µM (inactive)

**Q.** How did the EC50 turn out when COc1ccc(-c2nnc3c4ccccc4n(Cc4ccc(Cl)cc4)cc2-3)cc1 was run?
**A.** > 33 µM (inactive)

**Q.** With Fc1ccc(-c2nnc3c4cc5c(cc4n(Cc4ccccc4)cc2-3)OCO5)cc1 as the molecule, how does the EC50 read?
**A.** > 33 µM (inactive)

**Q.** How did the EC50 turn out when COc1ccc(-n2ncc3c(N4CCN(c5ccccc5)CC4)ncnc32)cc1 was run?
**A.** > 33 µM (inactive)

**Q.** Cc1cccc(C)c1-c1nc(C(=O)N[C@@H](CC(C)C)C(=O)O)cn1-c1ccnc2cc(Cl)ccc12 was tested. Which EC50 did it give?
**A.** > 33 µM (inactive)

**Q.** For CC(C)C[C@H](NC(=O)c1cn(-c2ccncc2)c(-c2ccccc2)n1)C(=O)O, which EC50 is on record?
**A.** > 33 µM (inactive)

**Q.** For CC(C)C[C@H](NC(=O)c1cn(-c2ccnc3ccccc23)c2ccccc12)C(=O)O, which EC50 is on record?
**A.** > 33 µM (inactive)

**Q.** COc1ccc2c3nnc(-c4ccc(C)cc4)c-3cn(Cc3ccccc3)c2c1 was tested. Which EC50 did it give?
**A.** > 33 µM (inactive)

**Q.** For Cc1ccc(-n2ncc3c(N4CCN(c5ccccc5)CC4)ncnc32)cc1, which EC50 is on record?
**A.** > 33 µM (inactive)

**Q.** How did the EC50 turn out when COc1cc2c3nnc(-c4ccc(F)cc4)c-3cn(Cc3ccc(OC(F)(F)F)cc3)c2cc1OC was run?
**A.** > 33 µM (inactive)

**Q.** COc1ccc(Cn2c(SCc3cccc(C(F)(F)F)c3)nc3cc(OC)c(OC)cc3c2=N)cc1Cl was tested. Which EC50 did it give?
**A.** > 33 µM (inactive)

**Q.** How did the EC50 turn out when Cc1ccc(-n2ncc3c(N4CCN(c5cc(C)ccc5C)CC4)ncnc32)c(C)c1 was run?
**A.** > 33 µM (inactive)

**Q.** How did the EC50 turn out when Cc1ccc(Cn2cc3c(-c4ccc(C)c(C)c4)nnc-3c3cc4c(cc32)OCO4)cc1 was run?
**A.** > 33 µM (inactive)

**Q.** Which EC50 does the source give for COc1cccc(OC)c1-c1nc(C(=O)N[C@@H](CC(C)C)C(=O)O)cn1-c1ccnc2ccccc12 here?
**A.** 18.2 µM

**Q.** For COc1cc2c3nnc(-c4ccc(F)cc4)c-3cn(Cc3ccc(C)cc3)c2cc1OC, which EC50 is on record?
**A.** > 33 µM (inactive)

**Q.** For COc1cc2nc(-c3ccccc3)nc(N3CCN(c4ccc(Cl)cc4)CC3)c2cc1OC, which EC50 is on record?
**A.** > 33 µM (inactive)

**Q.** With CC(C)C[C@H](NC(=O)c1cn(-c2ccnc3cc(Cl)ccc23)c(-c2ccccc2)n1)C(=O)O as the molecule, how does the EC50 read?
**A.** > 33 µM (inactive)

**Q.** How did the EC50 turn out when COc1cc2nc(C3CCC3)nc(N3CCN(c4ccccc4Cl)CC3)c2cc1OC was run?
**A.** > 33 µM (inactive)

**Q.** COc1ccc(N2CCN(c3ncnc4c3cnn4-c3ccc(C)cc3C)CC2)cc1 was tested. Which EC50 did it give?
**A.** > 33 µM (inactive)

**Q.** For COc1cc2c3nnc(-c4ccc(Cl)cc4)c-3cn(Cc3ccc(C)cc3)c2cc1OC, which EC50 is on record?
**A.** > 33 µM (inactive)

**Q.** With c1ccc(Cn2cc3c(-c4ccccc4)nnc-3c3ccccc32)cc1 as the molecule, how does the EC50 read?
**A.** > 33 µM (inactive)

**Q.** For COc1cc2c3nnc(-c4ccc(F)cc4)c-3cn(Cc3ccccc3)c2cc1OC, which EC50 is on record?
**A.** inactive

**Q.** Which EC50 does the source give for O=C(c1ccccc1)c1cn(Cc2ccccc2)c2ccccc2c1=O here?
**A.** > 33 µM (inactive)

**Q.** Which EC50 does the source give for COc1cccc2c(C(=O)N[C@@H](CC(C)C)C(=O)O)cn(-c3ccnc4ccccc34)c12 here?
**A.** > 33 µM (inactive)

**Q.** COc1ccc2nc(C3CCC3)nc(N3CCN(c4ccccc4OC)CC3)c2c1 was tested. Which EC50 did it give?
**A.** inactive

**Q.** How did the EC50 turn out when CCn1cc2c(-c3ccc(F)cc3)nnc-2c2cc(OC)c(OC)cc21 was run?
**A.** > 33 µM (inactive)

**Q.** Which EC50 does the source give for COc1ccc(C(=O)c2cn(Cc3ccc(F)cc3)c3ccccc3c2=O)cc1 here?
**A.** > 33 µM (inactive)

**Q.** For O=S(=O)(c1ccc(-c2csc(N/N=C/c3ccco3)n2)cc1)N1CCOCC1, which EC50 is on record?
**A.** > 33 µM (inactive)

**Q.** How did the EC50 turn out when COc1cc2nc(-c3ccccc3)nc(N3CCN(c4ccc(F)cc4)CC3)c2cc1OC was run?
**A.** > 33 µM (inactive)

**Q.** For COc1ccc(C(=O)c2cn(CCc3ccccc3)c3ccccc3c2=O)cc1, which EC50 is on record?
**A.** > 33 µM (inactive)

**Q.** For COc1cc2c3nnc(-c4ccc(Cl)cc4)c-3cn(Cc3ccc(F)cc3)c2cc1OC, which EC50 is on record?
**A.** > 33 µM (inactive)

**Q.** For Cc1ccc(/C=N/Nc2nc(-c3ccc(S(=O)(=O)N(C)C)cc3)cs2)cc1, which EC50 is on record?
**A.** > 33 µM (inactive)

**Q.** With CCOc1ccc(-c2nnc3c4cc(OC)c(OC)cc4n(Cc4ccc(C)cc4)cc2-3)cc1 as the molecule, how does the EC50 read?
**A.** > 33 µM (inactive)
